pEC50: −log10 of the molar value.
Tests used:
[1] = (§1) Cytotoxicity against phytohemagglutininin-activated human PBMC after 7 days by MTT assay; format: cell-based; conditions: phytohemagglutinin-activated PBMC, read-out: CD50
PBMC = assay: as §1; format: cell-based; conditions: pbmc, 168 h
[2] = tested on: Human immunodeficiency virus 1; assay: Antiviral activity against HIV1 LAI activity in phytohemagglutininin-activated human PBMC assessed as viral replication after 7 days; format: functional; conditions: for pEC50: Human immunodeficiency virus 1, LAI, 168 h, read-out: ED50 (the source's name)

Row | pEC50 [2] | SMILES | CC50 at 168 h [1] | CD90 (PBMC) | ED90 [2]
1 | 4.55 | CCCCCCCCCCCCCCCC(=O)OCC(COC(=O)CCCCCCCCCCCCCCC)OC(=O)CCCCCOP(=O)(O)OC[C@@H]1CC[C@H](n2cnc3c(=O)[nH]cnc32)O1 | > 50 µM | > 50 µM | >50 µM
2 | 5.55 | CCCCCCCCCCCCCCCC(=O)OCC(COC(=O)CCCCCCCCCCCCCCC)OC(=O)CCCC(=O)OC[C@@H]1CC[C@H](n2cnc3c(=O)[nH]cnc32)O1 | > 12 µM | > 12 µM | >12 µM
3 | 5.92 | O=c1[nH]cnc2c1ncn2[C@H]1CC[C@@H](CO)O1 [DIDANOSINE] | 40 µM | > 50 µM | 4.8 µM

Source: ChEMBL document CHEMBL1147170, “Synthesis and biological evaluation of two glycerolipidic prodrugs of didanosine for direct lymphatic delivery against HIV” (Bioorg Med Chem Lett, 2007)
